Assay results taken from patent publication US20110034472A1, “Novel Compounds for Treatment of Cancer and Disorders Associated With Angiogenesis Function” (UNIVERSITY OF SOUTHERN CALIFORNIA, priority 2004, published 2011).
“Also recorded” adds a separate entry of the source. Read-outs that look alike come from different tables or passages of the source.

Columns and labels:
PC3 xenografts = assay: PC3 human prostate cancer xenograft in athymic nude mice; type: in vivo
Experimental: FIG. 20. (A) is a schematic outline of tumor growth and dosing in PC3 mice xenografts. […] Athymic nude mice implanted with PC3 cells were treated with the indicated concentration of SC21 through daily i.p. administration for 5 d. Tumor growth was monitored for 5 wks. Values represent the tumor weight (mean±SD) for each group. (C) depicts dose-response to SC21 in the PC3 xenograft. Values represent the % T/C from each treatment group on the last day of measurement (after 5 wks); bars,±SD.
Fifty male athymic nude (nu/nu) mice (Charles River Laboratories, Wilmington, Mass.) were used for in vivo testing. The animals were fed ad libitum and kept in air conditioned rooms at 20±2° C. with a 12-hour light-dark period. Animal care and manipulation were in agreement with the University of Southern California Institutional Guidelines, which are in accordance with the Guidelines for the Care and Use of Laboratory Animals.
PC3 cells from in vitro cell culture were inoculated s.c. in both flanks of athymic nude mice (2×10^6 cells/flank) under aseptic conditions. Tumor growth was assessed by biweekly measurement of tumor diameters with a Vernier caliper (length×width). Tumor weight was calculated according to the formula: TW (mg)=tumor volume (mm^3)=d^2×D/2, where d and D are the shortest and longest diameters, respectively. Cells were allowed to grow to an average volume of 100 mm^3. Animals were then randomly assigned for control and treatment groups, to receive control vehicle or SC21 (0.3 and 3 mg/kg, dissolved in isotonic saline solution) via i.p. injections once a day for 5 days. Treatment of each animal was based on individual body weight. After 5 days of treatment, the tumor volumes in each group were measured […]. Treated animals were checked daily for treatment toxicity/mortality. The percentage of tumor growth inhibition was calculated as % T/C=100× (mean TW of treated group/mean TW of control group).
The in vivo efficacy of SC21 was evaluated in nude mice inoculated with human prostate PC3 cells. Animals were treated with daily i.p. injections of saline (controls) and SC21 at 0.3 or 3 mg/kg. After 5 days of dosing, the drug treatment was discontinued and the animals were monitored biweekly for 5 weeks.

MDA-MB-435 cells [1] = assay: Flow cytometric cell cycle analysis, SC144; type: cell-based, human; details: 24 h of treatment, SC144 3 uM
Source text: Similar effects were obtained on the asynchronous prostate cancer cell line DU145.

MDA-MB-435 cells [2] = assay: Annexin V/PI apoptosis analysis, SC144 and CPT; type: cell-based, human; details: 48 h; IC80
Source text: Cells were stained with annexin V/PI and analyzed by flow cytometry. Cells in the bottom left quadrant of each panel (Annexin V-negative, PI-negative) are viable, whereas cells in the bottom right quadrant (Annexin V-positive, PI-negative) are in the early stages of apoptosis, and cells in the top right quadrant (Annexin V-positive, PI-positive) are in later stages of apoptosis and necrosis.
An early event in apoptotic cell death is the translocation of the phosphatidyl-serine residues to the outer part of the cell membrane. This event precedes nuclear breakdown, DNA fragmentation, the appearance of most apoptosis-associated molecules, and is readily measured by annexin V binding assay. By this method, SC144 was compared with CPT.

UACC-62 melanoma cells = assay: Sensitivity of various cancer cells to SC144, UACC-62; type: cell-based; details: Homo sapiens
Source text: (§1) The studies were expanded to other cell lines. […] Subnanomolar to low nanomolar potency was also observed in HCT-116 and HT29 colon cancer cell lines (Table 2).

[3] = system: HOP-62 non-small cell lung cancer cells; assay: Sensitivity of various cancer cells to SC144, HOP-62; type: cell-based; details: Homo sapiens
Source text: as §1

RPMI-8226 leukemia cells = assay: Sensitivity of various cancer cells to SC144, RPMI-8226; type: cell-based; details: Homo sapiens
Source text: as §1

HT29 colon cancer cells = assay: MTT cytotoxicity assay, HT 29; type: cell-based, human; details: Homo sapiens, 72 h
Source text: Human breast cancer cells MDA-MB-435 and colon cancer HT29, p53 mutant were purchased from the American Type Cell Culture (Manassas, Va.). The HCT116 P53^+/+ and HCT116 P53^−/− cells were kindly provided by Dr. Bert Vogelstein (Johns Hopkins Medical Institutions, Baltimore, Md.). Human prostate cancer cells, LNCaP, were kindly provided by Richard Cote (University of Southern California Keck School of Medicine). Cells were maintained as monolayer cultures in RPMI 1640 media supplemented with 10% fetal bovine serum (Gemini-Bioproducts, Woodland, Calif.) and 2 mmol/L L-glutamine at 37° C. in a humidified atmosphere of 5% CO2. To remove the adherent cells from the flask for passaging and counting, cells were washed with PBS without calcium or magnesium, incubated with a small volume of 0.25% trypsin-EDTA solution (Sigma-Aldrich, St. Louis, Mo.) for 5-10 min, and washed with culture medium and centrifuged. All experiments were performed using cells at exponential growth stage. Cells were routinely checked for mycoplasma contamination using a PCR-based assay (Stratagene, Cambridge, UK).
Cytotoxicity was assessed by a 3-(4,5-dimethylthiazol-2-yl)-2,5-diphenyltetrazolium bromide (MTT) assay as previously described.^9 Briefly, cells were seeded in 96-well microtiter plates and allowed to attach. Cells were subsequently treated with continuous exposure to the corresponding drug for 72 h. An MTT solution (at a final concentration of 0.5 mg/mL) was added to each well, and cells were incubated for 4 h at 37° C. After removal of the medium, DMSO was added and the absorbance was read at 570 nm. All assays were done in triplicate. The IC50 was then determined for each drug from a plot of log (drug concentration) versus percentage of cells killed.

[4] = 0.3 or 3 mg/kg daily i.p. for 5 days

O=C(NNC(=O)c1ccccc1O)C1=CC2C=CC=CC2C=C1O (stereo not drawn) [SC21]
average weight of mice (PC3 xenografts; 0.3 mg/kg of SC21): 32.1 ± 1.92 g | average weight of mice (PC3 xenografts; 3.0 mg/kg of SC21): 33.3 ± 1.89 g | tolerability, drug-related deaths, body weight (PC3 xenografts; [4]): well-tolerated and did not result in any drug-related deaths and changes in body weight | tumor burden / tumor growth (PC3 xenografts; [4]): significantly reduced tumor burden; also recorded: Significant reduction in tumor growth

O=C(NNc1nc2cc(F)ccc2n2cccc12)c1cnccn1 [SC144, Pyrazine-2-carboxylic acid N′-(7-fluoro-pyrrolo[1,2-a]quinoxalin-4-yl)-hydrazide]
cells retained in S-phase (MDA-MB-435 cells [1]): 80% | early-apoptotic cells (MDA-MB-435 cells [2]): 37% | late-apoptosis/necrosis (MDA-MB-435 cells [2]): 16% | CC50 (UACC-62 melanoma cells): 800 nM | CC50 ([3]; HOP-62, read-out: CC50): 10 nM | CC50 ([3]; non-small cell lung cancer cells HOP-62, EKVX, and HOP-92, read-out: CC50 values range): 10 to 20 nM | CC50 (RPMI-8226 leukemia cells): 250 nM | IC50 (HT29 colon cancer cells): 900 ± 60 nM
